Laboratory results as given in PubChem BioAssay (NCI).
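Dose response: 5 concentrations. Exposure: 48 h. Format: 96-well plates. Endpoint: linear interpolation; highest concentration if not reached. The concentration for 50% growth inhibition is given as GI50. TGI: total growth inhibition.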

Key:
Test in all cases: NCI tumour cell line growth inhibition, 48 h
T-47D breast = test system: T-47D breast
K-562 leukemia = test system: K-562 leukemia
U251 CNS = test system: U251 CNS
LOX IMVI melanoma = test system: LOX IMVI melanoma
BT-549 breast = test system: BT-549 breast
NCI-H23 lung = test system: NCI-H23 lung
CCRF-CEM leukemia = test system: CCRF-CEM leukemia
UACC-257 melanoma = test system: UACC-257 melanoma
SN12C renal = test system: SN12C renal
HCT-116 colon = test system: HCT-116 colon
SF-295 CNS = test system: SF-295 CNS
UACC-62 melanoma = test system: UACC-62 melanoma
HS 578T breast = test system: HS 578T breast
OVCAR-4 ovarian = test system: OVCAR-4 ovarian
M14 melanoma = test system: M14 melanoma
RXF 393 renal = test system: RXF 393 renal
NCI-H522 lung = test system: NCI-H522 lung
SF-539 CNS = test system: SF-539 CNS
MALME-3M melanoma = test system: MALME-3M melanoma
SW-620 colon = test system: SW-620 colon
TK-10 renal = test system: TK-10 renal
SR leukemia = test system: SR leukemia
IGROV1 ovarian = test system: IGROV1 ovarian
PC-3 prostate = test system: PC-3 prostate
OVCAR-8 ovarian = test system: OVCAR-8 ovarian
MOLT-4 leukemia = test system: MOLT-4 leukemia
NCI-H226 lung = test system: NCI-H226 lung
MCF7 breast = test system: MCF7 breast
HT29 colon = test system: HT29 colon
HOP-62 NSCLC = test system: HOP-62 NSCLC
SK-OV-3 ovarian = test system: SK-OV-3 ovarian
SF-268 CNS = test system: SF-268 CNS
SK-MEL-2 melanoma = test system: SK-MEL-2 melanoma
MDA-MB-435 = test system: MDA-MB-435
COLO 205 colon = test system: COLO 205 colon
HOP-92 NSCLC = test system: HOP-92 NSCLC
DU-145 prostate = test system: DU-145 prostate
NCI-H460 lung = test system: NCI-H460 lung
UO-31 renal = test system: UO-31 renal
KM12 colon = test system: KM12 colon
SNB-75 CNS = test system: SNB-75 CNS
SK-MEL-5 melanoma = test system: SK-MEL-5 melanoma
OVCAR-3 ovarian = test system: OVCAR-3 ovarian
RPMI-8226 leukemia = test system: RPMI-8226 leukemia
786-0 renal = test system: 786-0 renal
HCT-15 colon = test system: HCT-15 colon
MDA-MB-231 breast = test system: MDA-MB-231 breast
HCC-2998 colon = test system: HCC-2998 colon
A498 renal = test system: A498 renal
OVCAR-5 ovarian = test system: OVCAR-5 ovarian
SNB-19 CNS = test system: SNB-19 CNS
HL-60(TB) leukemia = test system: HL-60(TB) leukemia
CAKI-1 renal = test system: CAKI-1 renal
SK-MEL-28 melanoma = test system: SK-MEL-28 melanoma
NCI/ADR-RES ovarian = test system: NCI/ADR-RES ovarian
ACHN renal = test system: ACHN renal
EKVX NSCLC = test system: EKVX NSCLC
A549 NSCLC = test system: A549 NSCLC

Compound `C[As](C)SC1OCC(O)C(O)C1O` (stereo not given) has a GI50 (T-47D breast) of 0.158 µM, a TGI (T-47D breast) of 4.74 µM and a GI50 (K-562 leukemia) of 0.0495 µM. The TGI (K-562 leukemia) was 0.378 µM, the GI50 (U251 CNS) was 0.46 µM and the TGI (U251 CNS) was 1.71 µM. It also gave a GI50 (LOX IMVI melanoma) of 0.199 µM, a TGI (LOX IMVI melanoma) of 0.566 µM and a GI50 (BT-549 breast) of 0.363 µM. For the same compound, the TGI (BT-549 breast) was 1.5 µM, the GI50 (NCI-H23 lung) was 0.281 µM and the TGI (NCI-H23 lung) was 1.76 µM. The GI50 (CCRF-CEM leukemia) was 0.4 µM, the TGI (CCRF-CEM leukemia) was 6.42 µM and the GI50 (UACC-257 melanoma) was 1.43 µM. The TGI (UACC-257 melanoma) was 7.22 µM, the GI50 (SN12C renal) was 0.226 µM and the TGI (SN12C renal) was 0.868 µM. For the same compound, the GI50 (HCT-116 colon) was 0.244 µM, the TGI (HCT-116 colon) was 1.37 µM and the GI50 (SF-295 CNS) was 7.18 µM. For the same compound, the GI50 (UACC-62 melanoma) was 0.195 µM, the TGI (UACC-62 melanoma) was 0.556 µM and the GI50 (HS 578T breast) was 0.276 µM. The TGI (HS 578T breast) was 0.718 µM, the GI50 (OVCAR-4 ovarian) was 1.09 µM and the TGI (OVCAR-4 ovarian) was 7.63 µM. For the same compound, the GI50 (M14 melanoma) was 0.128 µM, the TGI (M14 melanoma) was 0.925 µM and the GI50 (RXF 393 renal) was 0.321 µM. The TGI (RXF 393 renal) was 3.39 µM, the GI50 (NCI-H522 lung) was 0.0712 µM and the TGI (NCI-H522 lung) was 0.211 µM. The GI50 (SF-539 CNS) was 0.111 µM, the TGI (SF-539 CNS) was 0.595 µM and the GI50 (MALME-3M melanoma) was 0.069 µM. It also gave a TGI (MALME-3M melanoma) of 0.366 µM, a GI50 (SW-620 colon) of 0.217 µM and a TGI (SW-620 colon) of 1.59 µM. The GI50 (TK-10 renal) was under 0.0258 µM, the TGI (TK-10 renal) was 0.19 µM and the GI50 (SR leukemia) was 0.0255 µM. The TGI (SR leukemia) was 0.0849 µM, the GI50 (IGROV1 ovarian) was 0.805 µM and the TGI (IGROV1 ovarian) was 6.71 µM. For the same compound, the GI50 (PC-3 prostate) was 0.506 µM, the TGI (PC-3 prostate) was 5.73 µM and the GI50 (OVCAR-8 ovarian) was 0.284 µM. The TGI (OVCAR-8 ovarian) was 2.82 µM, the GI50 (MOLT-4 leukemia) was 0.0825 µM and the TGI (MOLT-4 leukemia) was 0.395 µM. The GI50 (NCI-H226 lung) was 0.68 µM, the TGI (NCI-H226 lung) was 2.19 µM and the GI50 (MCF7 breast) was 0.173 µM. For the same compound, the TGI (MCF7 breast) was 1.29 µM, the GI50 (HT29 colon) was 0.26 µM and the TGI (HT29 colon) was over 100 µM. For the same compound, the GI50 (HOP-62 NSCLC) was 2.15 µM, the TGI (HOP-62 NSCLC) was 9.52 µM and the GI50 (SK-OV-3 ovarian) was 0.211 µM. The TGI (SK-OV-3 ovarian) was 4.47 µM, the GI50 (SF-268 CNS) was 0.492 µM and the TGI (SF-268 CNS) was 2.88 µM. It also gave a GI50 (SK-MEL-2 melanoma) of 0.58 µM, a TGI (SK-MEL-2 melanoma) of 2.53 µM and a GI50 (MDA-MB-435) of 0.13 µM. For the same compound, the TGI (MDA-MB-435) was 1.32 µM, the GI50 (COLO 205 colon) was 0.747 µM and the TGI (COLO 205 colon) was 3.37 µM. It also gave a GI50 (HOP-92 NSCLC) of 0.283 µM, a TGI (HOP-92 NSCLC) of 2.07 µM and a GI50 (DU-145 prostate) of 0.122 µM. For the same compound, the TGI (DU-145 prostate) was 0.824 µM, the GI50 (NCI-H460 lung) was 1.1 µM and the TGI (NCI-H460 lung) was 7.52 µM. It also gave a GI50 (UO-31 renal) of 0.109 µM, a TGI (UO-31 renal) of 0.53 µM and a GI50 (KM12 colon) of 0.387 µM. It also gave a TGI (KM12 colon) of 3.83 µM, a GI50 (SNB-75 CNS) of 0.805 µM and a TGI (SNB-75 CNS) of 2.36 µM. For the same compound, the GI50 (SK-MEL-5 melanoma) was 0.166 µM, the TGI (SK-MEL-5 melanoma) was 0.382 µM and the GI50 (OVCAR-3 ovarian) was 0.081 µM. The TGI (OVCAR-3 ovarian) was 0.412 µM, the GI50 (RPMI-8226 leukemia) was 0.0537 µM and the TGI (RPMI-8226 leukemia) was 0.604 µM. The GI50 (786-0 renal) was 0.0708 µM, the TGI (786-0 renal) was 0.545 µM and the GI50 (HCT-15 colon) was 0.107 µM. For the same compound, the TGI (HCT-15 colon) was 0.611 µM, the GI50 (MDA-MB-231 breast) was 0.224 µM and the TGI (MDA-MB-231 breast) was 0.63 µM. For the same compound, the GI50 (HCC-2998 colon) was 0.224 µM, the TGI (HCC-2998 colon) was 0.466 µM and the GI50 (A498 renal) was 0.316 µM. It also gave a TGI (A498 renal) of 1.22 µM, a GI50 (OVCAR-5 ovarian) of 0.208 µM and a TGI (OVCAR-5 ovarian) of 0.71 µM. It also gave a GI50 (SNB-19 CNS) of 4.22 µM, a TGI (SNB-19 CNS) of 27.4 µM and a GI50 (HL-60(TB) leukemia) of 0.0278 µM. For the same compound, the TGI (HL-60(TB) leukemia) was 0.189 µM, the GI50 (CAKI-1 renal) was 0.0514 µM and the TGI (CAKI-1 renal) was 0.273 µM. The GI50 (SK-MEL-28 melanoma) was 0.387 µM, the TGI (SK-MEL-28 melanoma) was 3.33 µM and the GI50 (NCI/ADR-RES ovarian) was 0.138 µM. The TGI (NCI/ADR-RES ovarian) was 0.602 µM, the GI50 (ACHN renal) was 0.148 µM and the TGI (ACHN renal) was 0.624 µM. It also gave a GI50 (EKVX NSCLC) of 1.29 µM, a TGI (EKVX NSCLC) of 6.23 µM and a GI50 (A549 NSCLC) of 1.63 µM. The TGI (A549 NSCLC) was over 33.7 µM.
